Measurements: patent publication US11931338B2, “Nitrilated psilocybin derivatives and methods of using” (Enveric Biosciences Canada Inc., priority 2020, dated 2024)

Key:
5-HT1A receptor = target: T1, 5-HT1A receptor (Homo sapiens, UniProt P08908); experiment: cAMP-Glo assay in CHO-K1/5-HT1A/Gα15 (+5-HT1A) and CHO-K1/Gα15 (−5-HT1A) cells; conditions: for luminescence (cAMP) in +5HT1A cell culture at various compound concentrations: 5-HT1A activity: fixed (4 μM) forskolin, +5HT1A cells, FIG. 14B-14D; for relative cAMP levels with increasing compound concentration in +5HT1A and −5HT1A cells: constant (4 μM) forskolin, 5-HT1AR cells vs CHO-K1 cells, n=3, FIG. 14F, 14G
T1 sequence (P08908 1-422): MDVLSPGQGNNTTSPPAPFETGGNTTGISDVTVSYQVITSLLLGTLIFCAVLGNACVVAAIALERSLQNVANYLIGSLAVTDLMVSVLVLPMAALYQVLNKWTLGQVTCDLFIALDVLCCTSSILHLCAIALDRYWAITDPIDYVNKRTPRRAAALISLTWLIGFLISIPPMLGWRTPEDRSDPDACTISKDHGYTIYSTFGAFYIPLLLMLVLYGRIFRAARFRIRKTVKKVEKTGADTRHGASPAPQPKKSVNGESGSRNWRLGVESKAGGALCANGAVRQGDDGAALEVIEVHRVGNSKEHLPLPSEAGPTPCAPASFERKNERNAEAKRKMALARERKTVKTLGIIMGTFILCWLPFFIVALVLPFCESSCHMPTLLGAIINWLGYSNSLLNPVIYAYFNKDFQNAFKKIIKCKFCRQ
Excerpt: CHO-K1/Gα15 (GenScript, M00257) (−5-HT1A) and CHO-K1/5-HT1A/Gα15 (GenScript, M00330) (+5-HT1A) cells lines were used. Briefly, CHO-K1/Gα15 is a control cell line that constitutively expresses Gα15 which is a promiscuous Gq protein. This control cell line lacks any transgene encoding 5-HT1A receptors, but still respond to forskolin; thus, cAMP response to forskolin should be the same regardless of whether or not 5-HT1A agonists are present. Conversely, CHO-K1/5-HT1A/Gα15 cells stably express 5-HT1A receptor in the CHO-K1 host background. […] In contrast, tryptophan is not known to activate 5-HT1A receptors, and was thus used as a negative control. Cells were maintained in complete growth media as recommended by supplier (GenScript) which is constituted as follows: Ham's F12 Nutrient mix (HAM's F12, GIBCO #11765-047) with 10% fetal bovine serum (FBS) (Thermo Scientific #12483020), 200 μg/ml zeocin (Thermo Scientific #R25005) and/or 100 μg/ml hygromycin (Thermo Scientific #10687010). The cells were cultured in a humidified incubator with 37° C. and 5% CO2. Cells maintenance was carried out as recommended by the cell supplier. Briefly, vials with cells were removed from the liquid nitrogen and thawed quickly in 37° C. water bath. Just before the cells were completely thawed the vial's outside was decontaminated by 70% ethanol spray. The cells suspension was then retrieved from the vial and added to warm (37° C.) complete growth media, and centrifuged at 1,000 rpm for 5 minutes. The supernatant was discarded and the cell pellet was then resuspended in another 10 ml of complete growth media, and added to the 10 cm cell culture dish (Greiner Bio-One #664160). The media was changed every third day until the cells were about 90% confluent. The ˜90% confluent cells were then split 10:1 for maintenance or used for experiment. As 5-HT1AR activation inhibits cAMP formation, the agonist activity of test molecules on 5-HT1AR was measured via the reduction in the levels of cAMP produced due to application of 4 μM forskolin. The change in intracellular cAMP levels due to the treatment of novel molecules was measured using cAMP-Glo Assay kit (Promega #V1501). Briefly, +5-HT1A cells were seeded on 1-6 columns and base −5-HT1A cells were seeded on columns 7-12 of the white walled clear bottom 96-well plate (Corning, #3903). Both cells were seeded at the density of 30,000 cells/well in 100 μl complete growth media and cultured 24 hrs in humidified incubator at 37° C. and 5% CO2. On the experiment day, the media of cells was replaced with serum/antibiotic free culture media. Then the cells were treated for 20 minutes with test molecules dissolved in induction medium (serum/antibiotic free culture media containing 4 μM forskolin, 500 μM IBMX (isobutyl-1-methylxanthine, Sigma-Aldrich, Cat. #17018) and 100 μM (RO 20-1724, Sigma-Aldrich, Cat. #B8279)). Forskolin induced cAMP formation whereas IBMX and RO 20-1724 inhibited the degradation of cAMP. PKA was added to the lysate, mixed, and subsequently the substrate of the PKA was added. PKA was activated by cAMP, and the amount of ATP consumed due to PKA phosphorylation directly corresponded to cAMP levels in the lysate. Reduced ATP caused reduced conversion of luciferin to oxyluciferin, conferring diminished luminescence as the result of 5-HT1A activation.

5-HT2A receptor = target: T2, 5-HT2A receptor (Homo sapiens, UniProt P28223); experiment: [3H]ketanserin competition binding assay (Scintillation Proximity Assay) with membranes containing 5-HT2A; conditions: fixed (1 nM) [3H]ketanserin; FIG. 13C, 13D
T2 construct: purchased PerkinElmer ES-313-M400UA
T2 sequence (P28223 whole entry): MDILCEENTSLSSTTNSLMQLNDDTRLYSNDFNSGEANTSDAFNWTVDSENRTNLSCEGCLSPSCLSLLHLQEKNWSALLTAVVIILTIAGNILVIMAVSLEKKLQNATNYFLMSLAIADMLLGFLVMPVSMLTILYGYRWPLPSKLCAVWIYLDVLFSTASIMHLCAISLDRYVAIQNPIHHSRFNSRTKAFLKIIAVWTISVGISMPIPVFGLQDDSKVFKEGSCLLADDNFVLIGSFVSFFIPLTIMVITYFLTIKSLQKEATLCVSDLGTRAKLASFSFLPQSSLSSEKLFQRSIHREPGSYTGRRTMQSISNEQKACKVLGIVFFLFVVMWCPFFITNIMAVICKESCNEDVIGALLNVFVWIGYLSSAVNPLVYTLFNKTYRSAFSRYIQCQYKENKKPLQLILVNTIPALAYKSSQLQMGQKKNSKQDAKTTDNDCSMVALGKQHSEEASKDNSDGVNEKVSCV
Excerpt: Evaluation of drug binding is an essential step to characterization of all drug-target interactions (Fang 2012, Exp Opin Drug Discov 7:969). The binding affinity of a drug to a target is traditionally viewed as an acceptable surrogate of its in vivo efficacy (Núñez et al., 2012, Drug Disc Today 17: 10). Competition assays, also called displacement or modulation binding assays, are a common approach to measure activity of a ligand at a target receptor (Flanagan 2016, Methods Cell Biol 132: 191). In these assays, standard radioligands acting either as agonists or antagonists are ascribed to specific receptors. […] After incubation, the samples were read on a MicroBeta 2 Microplate Counter (Perkin Elmer). […] Equilibrium binding constants for ketanserin (Kd) were determined from saturation binding curves using the ‘one-site saturation binding analysis’ method of GraphPad PRISM software (Version 9.2.0). […] Ki values were calculated from the competition displacement data using the competitive binding analysis from GraphPad PRISM software. […] Specific binding in counts per minute (cpm) was calculated by subtracting non-specific binding from total binding. Specific binding (pmol/mg) was calculated from pmol of [^3H]ketanserin bound per mg of protein in the assay. The Kd was calculated by fitting the data with the one-site binding model of PRISM software (version 9.2.0).

CN(C)CCc1c[nH]c2ccccc12 [DMT]
luminescence (cAMP) in +5HT1A cell culture at various compound concentrations: 5-HT1A activity (5-HT1A receptor): 5-HT1A activity

CN(C)CCc1c[nH]c2cccc(O)c12 [psilocin]
competition binding curve against [3H]ketanserin at the 5-HT2A receptor (5-HT2A receptor): binding

CC(=O)NCCc1c[nH]c2c(C)cc(C#N)cc12 [compound (VIII), N-[2-(5-cyano-7-methyl-1H-indol-3-yl)ethyl]acetamide]
relative cAMP levels with increasing compound concentration in +5HT1A and −5HT1A cells (5-HT1A receptor): agonist of 5HT1A | luminescence (cAMP) in +5HT1A cell culture at various compound concentrations: 5-HT1A activity (5-HT1A receptor): 5-HT1A activity

NCCc1c[nH]c2ccc(O)cc12 [serotonin]
relative cAMP levels with increasing compound concentration in +5HT1A and −5HT1A cells (5-HT1A receptor): agonist of 5HT1A

N[C@@H](Cc1c[nH]c2ccccc12)C(=O)O [tryptophan]
competition binding curve against [3H]ketanserin at the 5-HT2A receptor (5-HT2A receptor): no binding | luminescence (cAMP) in +5HT1A cell culture at various compound concentrations: 5-HT1A activity (5-HT1A receptor): lack of 5-HT1A activity
